# In patent US11162063B2, “Methods and apparatus for conditioning cell populations for cell therapies” (THE BOARD OF REGENTS OF THE UNIVERSITY OF TEXAS SYSTEM, priority 2015, dated 2021):
# Entries after “also recorded” stand apart in the source; their conditions may differ.
# Tests used:
# [1] = system: TNF-α secretion by activated splenocytes; experiment: TNF-α cytokine suppression assay, MSC co-culture with LPS or PHA-activated splenocytes; type: cell-based, mouse; details: 10 μM; for effect on the ability of shear treated MSC to suppress TNF-α production: six MSC donor lines
# Excerpt: FIG. 22 illustrates TNF-α cytokine suppression assays that highlight functional enhancement of MSC immunomodulation. Human MSCs preconditioned by mechanical force (15 dyne/cm2 shear stress for 3 hrs) are placed in static co-culture with lipopoly-saccharide (LPS) or phytohaemagglutinin (PHA)-activated splenocytes including macrophages, neutrophils, NK, B, and T cells. […] Lower values correspond to greater anti-inflammatory potency. hBM MSC, human bone marrow MSC; hAF MSC, amniotic fluid MSC (indicated by a “*” in graph); hAD MSC, adipose-derived MSC (indicated by a “^” in graph). P-values calculated by paired t-test, equal variance.
# (§1) Similarly it was determined utilizing commercially available ELISAs that the media from human MSCs cultures that had been subject to fluid shear stress also contained immunomodulatory proteins, such as prostaglandin E2. In addition, Western blotting confirmed elevated protein levels (translation) of COX2, TSG6, and IL1RN. Actin protein expression levels, which are constant, were used as a control for baseline protein expression. […] It was also determined that this induction could be abrogated by the addition of 10 uM of the NF-kappaB antagonist BAY11-7085 (FIG. 21). Furthermore by utilizing commercially available ELISAs, it was determined that the media from human MSCs cultures that had been subject to fluid shear stress for as little as 3 hours had immunosuppressive activity, as evidenced by the 10-50% reduction in TNF-α when treated hMSCs were co-cultured with activated immune cells from the spleen (FIG. 22).
# [2] = system: COX2 protein in human MSC; experiment: Western blot of intracellular COX2 protein in shear stressed MSCs; type: cell-based; details: 10 μM, 8 hours of fluid shear stress
# Procedure: A pilot study was conducted to provide proof of principle that fluid shear stress can be used to condition stem cells, alter gene expression, and enhance functional activities. To exemplify the conditioning activity of shear stress of the type provided by the present system, but on a much smaller analytical scale, force (shear stress) was applied using custom fabricated slides or IBIDI® small-scale microfluidics channel slides obtained from IBIDI, LLC. (Verona, Wis., USA). Human samples were harvested from bone marrow (BM), amniotic fluid (AF), or adipose (AD) tissue, processed for isolation and expansion of hMSC, and stored frozen. Frozen hMSCs were thawed and seeded into T225 cell culture flasks with 50 ml Minimum Essential Medium (MEM-α) (20% FBS, 5% Penicillin/Streptomycin, 5% Glutamine). The media was replaced every 3-4 days. hMSCs were maintained in culture until they were almost 100% confluent. […] The number of live cells present was determined using trypan blue dye exclusion. Live cell counts were determined on a hemacytometer and the cells were resuspended to obtain the desired concentration for each assay (see Table 1). […]
# Similarly it was determined utilizing commercially available ELISAs that the media from human MSCs cultures that had been subject to fluid shear stress also contained immunomodulatory proteins, such as prostaglandin E2. […]
# [3] = system: human amniotic fluid MSC; experiment: Priming agents combined with shear stress, anti-inflammatory signaling in hAF MSC; type: cell-based
# Procedure: FIG. 24 illustrates that priming agents complement shear-induced anti-inflammatory signaling. Darkened bars represent treatment combinations that indicate a substantial induction of the pathway by shear stress and cytokines (IFN-γ, 20 ng/ml; TNF-α, 50 ng/ml). In this low-performance human amniotic MSC line, TSG6 was induced by shear stress only. IDO was induced by IFN-γ only. hAF MSC, human amniotic fluid MSC.
# as §1
compound,measurement,setting,value
CC(C)(C)c1ccc(S(=O)(=O)/C=C/C#N)cc1 [BAY11-7085],effect on the ability of shear treated MSC to suppress TNF-α production,[1],abrogate the positive effects of shear stress
same,effect on shear-induced COX2 protein,[2],abrogated; also recorded: reduced
COc1ccc2c(c1)c(CC(=O)O)c(C)n2C(=O)c1ccc(Cl)cc1 [Indomethacin],effect on the ability of shear treated MSC to suppress TNF-α production,[1],abrogate the positive effects of shear stress
CS(=O)(=O)Nc1ccc([N+](=O)[O-])cc1OC1CCCCC1 [NS-398],effect on the ability of shear treated MSC to suppress TNF-α production,[1],abrogate the positive effects of shear stress
"CCCCC(C)(C)C(O)C=CC1C(O)CC(=O)C1CC=CCCCC(=O)O (stereo not shown) [dmPGE2, 16,16′-dimethyl prostaglandin E2]",effect of ectopic agent on TNF-α production,[1]; compared with sheared MSCs,reduced TNF-α to levels produced in the presence of sheared MSCs; also recorded: mimics MSC suppression
"IFN-γ: cytokine priming agent, 20 ng/ml",induction of COX2 and HMOX1 in sheared MSCs with added priming agent,[3]; IFN-γ 20 ng/ml plus shear stress,greater induction
same,IDO induction,"[3]; IFN-γ 20 ng/ml, low-performance human amniotic MSC line",induced
